In patent US4382090A, “N-Thiazolylmethylthioalkyl-N'alkylamidines and related compounds” (Eli Lilly and Company, priority 1981, dated 1983):

Columns and labels:
H2 -receptors = target: T1, H2 -receptors (Rattus norvegicus, UniProt P25102); assay: H2-receptor blocking activity, isolated rat uterine horn (histamine relaxation of KCl-contracted uterus); details: for Kb: rat uterus, Schild plot, read-out: KB (dissociation constant of the antagonist)
T1 construct: from tissue; host or cells: uterine horn of estrone-treated female albino rats
T1 sequence (P25102 whole entry): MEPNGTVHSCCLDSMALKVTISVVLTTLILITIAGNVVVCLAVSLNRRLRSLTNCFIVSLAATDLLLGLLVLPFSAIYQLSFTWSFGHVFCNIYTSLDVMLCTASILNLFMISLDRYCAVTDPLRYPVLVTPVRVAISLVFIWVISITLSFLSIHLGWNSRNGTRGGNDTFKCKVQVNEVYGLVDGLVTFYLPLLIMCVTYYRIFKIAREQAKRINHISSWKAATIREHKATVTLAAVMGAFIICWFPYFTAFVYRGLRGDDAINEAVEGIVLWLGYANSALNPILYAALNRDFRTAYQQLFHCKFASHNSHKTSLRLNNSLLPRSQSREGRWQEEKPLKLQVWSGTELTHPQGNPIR
Experimental: The following assay for H2 -receptor blocking activity was employed. Female albino rats were treated with estrone 24 hours prior to the initiation of the experiment. The rats were sacrificed and the uterine horns removed therefrom and suspended at ambient temperatures in isolated organ baths containing De Jalon's solution. After equilibration, the uterine strips are exposed to 50 millimole aqueous potassium chloride, which produces a sustained contraction. When the uterus is so contracted, histamine produces a dose-dependent H2 -receptor-mediated relaxation. A control dose-response curve to histamine is constructed on each tissue. Following thorough washout of the histamine after obtaining the control dose-response curve, each antagonist (the compounds of this invention) is added for 30 minutes at a concentration of 10^-5 molar. The uterine strips are then contracted with aqueous potassium chloride in the presence of the antagonist and a second dose-response curve to histamine obtained. In the presence of a competitive antagonist, the dose-response curve to histamine is shifted in parallel to the right with no depression of the maximum relative to the control curve. The dose ratio (DR) is calculated for each concentration of antagonist by dividing the ED50 of histamine in the presence of the competitive antagonist by the control ED50 for histamine. The dissociation constant (KB) of the antagonist is calculated from the dose-ratios by the following equation: […]

[1] = Preliminary tests of duration of action
H2 -receptor [2] = details: cited from earlier work
[3] = cited from earlier work
[4] = cited from earlier work; remark: listed apart in the source
H2 -receptor [5] = details: cited from earlier work; remark: listed apart in the source

CNC(=C[N+](=O)[O-])NCCSCc1csc(CN(C)C)n1 [N-methyl-N'-2-(2-dimethylaminomethyl-4-thiazolylmethylthio)ethyl 2-nitro-1,1-ethenediamine]
Kb (H2 -receptors): 87 nM | duration of action compared with cimetidine [1]: longer duration of action

CNC(=NC#N)NCCSCc1csc(CN(C)C)n1 [N-methyl-N'-2-(2-dimethylaminomethyl-4-thiazolylmethylthio)ethyl-N"-cyanoguanidine]
affinity for the H2 -receptors relative to cimetidine (H2 -receptors; rat uterine strips, antagonist 10^-5 molar for 30 minutes): about 1.5 times

C#CCNC(=C[N+](=O)[O-])NCCSCc1ccc(CN(C)C)o1 [1-nitro-2-(2-propynylamino)-2-(2-[(5-dimethylaminomethyl-2-furyl)methylthio]ethylamino)ethylene]
activity relative to cimetidine in a standard H2 -receptor assay (H2 -receptor [2]): 7.45 times

CN/C(=N/CCSCc1nc[nH]c1C)NC#N [cimetidine, N-cyano-N'-methyl-N"-[2-([(5-methyl-1H-imidazol-4-yl)methyl]thio)ethyl]guanidine]
Literature LD50 rat iv ([3]; iv): 106 mg/kg | Literature LD50 rat oral ([3]; oral): 5000 mg/kg | Kb (H2 -receptors): 871 nM | Literature LD50 mouse iv [4]: 150 mg/kg

CNC(=NC#N)NCCSCc1csc(NC(=N)N)n1 [2-guanidino-4-[2-(2-cyano-3-methylguanidino)ethylthiomethyl]thiazole]
activity compared with cimetidine (H2 -receptor [5]): greatly increased activity over cimetidine
